One assay concerns BT474C cells. In words: Test (e) BT474C cell proliferation assay. Type of assay: cell-based. As to conditions: Homo sapiens, 96 h, four-day MTS endpoint, read-out: IC50 Test (e): Inhibition of proliferation of BT474C cells. An excerpt: The BT-474 tumour cell line (human mammary carcinoma) was obtained from Dr Baselga (at Laboratorio Recerca Oncologica, Paseo Vall D'Hebron 119-129, Barcelona 08035, Spain). This cell line was subcloned and a certain population (hereinafter referred to as “BT474C”) was obtained.
e) BT474C Cell Proliferation Assay
BT474C cells are a sub-cloned population of in vivo competent cells, as discussed above.
The BT474C assay is a MTS (3-(4,5-dimethylthiazol-2-yl)-5-(3-carboxymethoxyphenyl)-2-(4-sulfophenyl)-2H-tetrazolium, inner salt—Promega G1111) endpoint-based cell proliferation assay, which measures the ability of a test compound to inhibit the proliferation of cells over a four-day period. […] Cell density is measured using a haemocytometer and viability is calculated using Trypan Blue solution before being further diluted in Assay Medium and seeded at a density of 1×10^4 cells per well (in 100 ul) into clear bottomed 96 well plates (Costar 3598). […] The plate is read at 490 nm on a spectrophotometer.
Assay plates are left at 37° C. for 4 days and then treated with MTS solution (as above), which is converted to a soluble formazan product by active cells. After incubating the plates for 2 hours the reaction is stopped by the addition of 10% SDS (Sodium dodecyl sulphate) and the plates are read at 490 nm on a spectrophotometer giving absorbance values relative to the concentration of converted dye. […]

The target of another assay is T1, EGFR tyrosine kinase (Homo sapiens, UniProt P00533).
T1 construct: Recombinant intracellular fragments of EGFR, erbB2 and erbB4; made in house; host or cells: baculovirus/Sf21 insect cells (cleared lysate used)
T1 sequence (P00533 669-1210 limits assumed): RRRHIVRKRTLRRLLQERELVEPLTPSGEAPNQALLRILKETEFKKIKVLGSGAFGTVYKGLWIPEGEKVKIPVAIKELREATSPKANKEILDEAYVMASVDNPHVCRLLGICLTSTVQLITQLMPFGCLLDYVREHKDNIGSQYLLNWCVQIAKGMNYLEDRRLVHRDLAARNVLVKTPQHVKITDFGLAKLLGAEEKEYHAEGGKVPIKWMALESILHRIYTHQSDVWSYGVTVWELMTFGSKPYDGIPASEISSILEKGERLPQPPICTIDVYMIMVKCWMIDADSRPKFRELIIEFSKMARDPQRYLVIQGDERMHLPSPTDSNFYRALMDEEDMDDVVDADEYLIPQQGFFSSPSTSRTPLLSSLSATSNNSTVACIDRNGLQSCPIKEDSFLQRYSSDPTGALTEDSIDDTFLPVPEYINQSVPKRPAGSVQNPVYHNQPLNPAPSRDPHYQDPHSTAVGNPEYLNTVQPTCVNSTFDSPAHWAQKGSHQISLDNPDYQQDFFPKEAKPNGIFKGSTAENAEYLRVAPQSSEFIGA
In words: Test (a) protein tyrosine kinase phosphorylation assay, EGFR. It counts as biochemical. The note with it: recombinant intracellular fragment, ATP at Km; read-out: IC50 Test (a): Inhibition of EGFR tyrosine kinase protein phosphorylation. As for the experimental part:
(§1) a) Protein Tyrosine Kinase phosphorylation Assays
(§2) This test measures the ability of a test compound to inhibit the phosphorylation of a tyrosine containing polypeptide substrate by EGFR, erbB2 and erbB4 tyrosine kinase enzyme.
(§3) Recombinant intracellular fragments of EGFR, erbB2 and erbB4 (accession numbers X00588, X03363 and L07868 respectively) were cloned and expressed in the baculovirus/Sf21 system. […]
(§4) Constitutive kinase activity of these recombinant proteins was determined by their ability to phosphorylate a synthetic peptide (made up of a random co-polymer of Glutamic Acid, Alanine and Tyrosine in the ratio of 6:3:1). […]
(§5) The immobilised phospho-peptide product of the reaction was detected by immunological methods. […] After further washing, HRP activity in each well of the plate was measured […] using 22′-Azino-di-[3-ethylbenzthiazoline sulfonate (6)] diammonium salt crystals (ABTS™ from Roche) as a substrate.
(§6) Quantification of colour development and thus enzyme activity was achieved by the measurement of absorbance at 405 nm on a Molecular Devices ThermoMax microplate reader. Kinase inhibition for a given compound was expressed as an IC50 value. […] The range of phosphorylation was calculated from the positive (vehicle plus ATP) and negative (vehicle minus ATP) control values.

Another assay addresses T2, erbB2 tyrosine kinase (Homo sapiens, UniProt P04626).
T2 construct: Recombinant intracellular fragments of EGFR, erbB2 and erbB4; made in house; host or cells: baculovirus/Sf21 insect cells (cleared lysate used)
In words: Test (a) protein tyrosine kinase phosphorylation assay, erbB2. Type of assay: biochemical. As to conditions: recombinant intracellular fragment, ATP at Km; read-out: IC50 Test (a): Inhibition of erbB2 tyrosine kinase protein phosphorylation. The procedure:
as §1, §2, §3, §4, §5, §6

T2 sequence (P04626 676-1255 limits assumed): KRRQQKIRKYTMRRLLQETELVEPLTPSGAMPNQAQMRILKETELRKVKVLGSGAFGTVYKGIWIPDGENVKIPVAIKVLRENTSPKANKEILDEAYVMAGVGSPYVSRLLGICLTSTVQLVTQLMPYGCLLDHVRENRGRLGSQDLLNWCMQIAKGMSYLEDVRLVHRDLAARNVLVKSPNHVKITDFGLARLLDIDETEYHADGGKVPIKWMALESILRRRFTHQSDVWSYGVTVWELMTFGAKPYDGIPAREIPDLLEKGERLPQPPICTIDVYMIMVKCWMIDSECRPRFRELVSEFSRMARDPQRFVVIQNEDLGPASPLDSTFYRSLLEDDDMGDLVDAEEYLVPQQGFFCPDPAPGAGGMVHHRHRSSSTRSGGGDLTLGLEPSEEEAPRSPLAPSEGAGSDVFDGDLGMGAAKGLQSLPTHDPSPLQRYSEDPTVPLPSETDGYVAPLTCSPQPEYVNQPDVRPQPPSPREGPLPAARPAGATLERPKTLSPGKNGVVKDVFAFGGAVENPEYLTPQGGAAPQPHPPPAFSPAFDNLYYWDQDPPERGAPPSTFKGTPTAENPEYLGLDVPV

As for `C[C@@H](Oc1cccc2ncnc(Nc3ccc(C(=O)N4CCCCCC4)c(Cl)c3)c12)C(=O)N(C)CCO` [Example 1, (2R)-2-[(4-{[4-(azepan-1-ylcarbonyl)-3-chlorophenyl]amino}quinazolin-5-yl)oxy]-N-(2-hydroxyethyl)-N-methylpropanamide], the IC50 with BT474C cells worked out at 0.179 µM; at EGFR tyrosine kinase it was 0.333 µM; at erbB2 tyrosine kinase it was 0.015 µM.
Turning to `C[C@@H](Oc1cccc2ncnc(Nc3ccc(C(=O)N4CCCCC4)c(Cl)c3)c12)C(=O)N(C)CCO` [Example 2, (2R)-2-[(4-{[3-chloro-4-(piperidin-1-ylcarbonyl)phenyl]amino}quinazolin-5-yl)oxy]-N-(2-hydroxyethyl)-N-methylpropanamide], the IC50 was determined as 0.857 µM with BT474C cells, 0.869 µM on EGFR tyrosine kinase and 0.022 µM at erbB2 tyrosine kinase.

Source of the values: US20090029968A1, “QUINAZOLINE DERIVATIVES USED AS INHIBITORS OF ERBB TYROSINE KINASE” (priority 2005, published 2009).
